Values after ≈ are worked out from the molar mass of the structure shown. Read-outs that look alike come from different tables or passages of the source.
Experiments:
[1] = tested on: patient derived organoids; type: cell-based, human
Excerpt: A few of the above drug products, as well as additional drugs were tried for response to patient derived organoids.

[2] = cited from earlier work
[3] = biological target: P-glycoprotein (Homo sapiens, UniProt P08183); conditions: in vitro; cited from earlier work
Sequence of P-glycoprotein (P08183 whole entry): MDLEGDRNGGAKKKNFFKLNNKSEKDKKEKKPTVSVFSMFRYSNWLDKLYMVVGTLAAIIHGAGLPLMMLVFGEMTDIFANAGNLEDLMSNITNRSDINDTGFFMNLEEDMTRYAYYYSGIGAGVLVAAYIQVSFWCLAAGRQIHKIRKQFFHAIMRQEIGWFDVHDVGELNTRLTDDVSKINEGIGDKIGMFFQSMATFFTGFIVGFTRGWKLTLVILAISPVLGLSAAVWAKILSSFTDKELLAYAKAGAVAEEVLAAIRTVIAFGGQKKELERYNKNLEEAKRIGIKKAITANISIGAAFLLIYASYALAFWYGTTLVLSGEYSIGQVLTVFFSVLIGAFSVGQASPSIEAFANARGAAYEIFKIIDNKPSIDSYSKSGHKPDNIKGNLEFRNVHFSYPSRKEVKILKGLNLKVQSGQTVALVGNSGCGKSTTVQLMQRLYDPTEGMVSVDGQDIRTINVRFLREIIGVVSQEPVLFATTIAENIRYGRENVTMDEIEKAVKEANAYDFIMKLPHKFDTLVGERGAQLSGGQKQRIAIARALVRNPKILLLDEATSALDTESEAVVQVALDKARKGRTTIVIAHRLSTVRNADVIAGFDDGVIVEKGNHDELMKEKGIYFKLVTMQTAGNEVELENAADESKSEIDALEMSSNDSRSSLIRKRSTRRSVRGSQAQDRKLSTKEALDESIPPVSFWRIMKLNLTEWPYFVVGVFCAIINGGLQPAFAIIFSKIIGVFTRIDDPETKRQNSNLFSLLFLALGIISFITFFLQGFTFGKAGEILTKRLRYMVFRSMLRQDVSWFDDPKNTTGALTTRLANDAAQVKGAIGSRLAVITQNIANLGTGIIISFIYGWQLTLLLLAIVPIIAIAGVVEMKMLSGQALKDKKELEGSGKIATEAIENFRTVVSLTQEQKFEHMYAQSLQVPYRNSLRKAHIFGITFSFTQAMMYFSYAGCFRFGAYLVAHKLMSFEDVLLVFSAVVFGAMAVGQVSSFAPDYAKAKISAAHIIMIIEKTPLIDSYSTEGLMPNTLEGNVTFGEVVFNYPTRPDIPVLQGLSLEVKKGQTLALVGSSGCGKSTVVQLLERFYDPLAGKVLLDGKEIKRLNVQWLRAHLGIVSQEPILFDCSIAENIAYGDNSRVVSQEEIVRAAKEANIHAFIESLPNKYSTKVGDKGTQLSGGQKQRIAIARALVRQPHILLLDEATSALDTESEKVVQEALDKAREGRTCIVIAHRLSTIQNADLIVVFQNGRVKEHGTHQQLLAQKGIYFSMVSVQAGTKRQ

[4] = chronic use, humans; cited from earlier work
[5] = tested on: patient derived chemosensitive and chemoresistant ovarian cancer organoids; test: Four Cannabis extracts on newly obtained ovarian cancer organoids, viability; type: cell-based, human; conditions: Homo sapiens, all samples
Experimental: Applicant then tested several different Cannabis extracts at varying concentrations on newly obtained patient derived chemosensitive and chemoresistant ovarian cancer organoids. […] Here, the BSHE continued to work at virtually the same level as prior tests, even though these organoids were generated from different patients than all prior tests. […] However, what remains constant is that at or about 10 μg/mL, virtually all patient derived organoid samples begin to or reach zero viability.

[6] = tested on: patient derived endometrial cancer organoids; test: Carboplatin alone or with Cannabis extract, endometrial cancer organoids; type: cell-based, human
Excerpt: To determine if this premise is conserved over different chemotherapeutic agents, Applicant repeated the tests replacing paclitaxel with carboplatin toward a related gynecological cancer cell, endometrial cancer cells. The surprising findings with paclitaxel were further confirmed by testing the impacts of carboplatin alone or carboplatin with a Cannabis extract.
Finally, with a dose of 250 μm/mL carboplatin, a 2.5× in the dose from the […] test, all of the combined therapeutics with carboplatin and Cannabis extract are below 10% viability, while the carboplatin alone remains at above 30%.

[7] = tested on: cancer organoid; test: Effect of pH of the Cannabis extract on organoid viability; type: cell-based, human; conditions: pH 8
Experimental: A further interesting observation was determined by the impacts of pH on the efficacy of the Cannabis extract on organoid data. […] In each case, the control vehicle, buffered to the same pH was ineffective in killing the cells at all, and thus was not depicted. […] However, pH of 12, and certainly of 14 are highly corrosive, alkaline concentrations and are not suitable for therapeutic use.
Accordingly, when providing the Cannabis extract for therapeutic administration, […] yields an unexpected increase in efficacy.

[8] = tested on: patient derived organoids (PD3D Cell Culture); test: Calculated IC50 in PD3D cell culture of the patient derived organoids; type: cell-based, human
[9] = cells without a printed unit; cited from earlier work
[10] = tested on: chemosensitive ovarian cancer cells, derived from ascites cells; conditions: for viability: human, 14 days
[11] = tested on: patient derived endometrial cancer cells; type: in vivo, mice; conditions: paclitaxel alone 10 mg/kg (30.007 mg/m^2), 21 days
Experimental: Human patient cells from endometrial cancer were injected subcutaneously into female NOD/SCID gamma mice after resuspending in 100 μL solution. […] All treatment group mice were kept alive for up to 10 weeks after drug injection or until the tumor volume grows bigger than 2500 mm^3.

[12] = tested on: chemoresistant ovarian cancer organoid
Experimental: To culture patient-derived organoids, 2-3×10^3 cells were plated in a pre-warmed (37° C.) 96-well plate in 10 mL of Matrigel (5%FBS AD+++ medium) per well. Individual patient cell organoid was cultured separately in different plates. Individual patient cells were handled separately to reduce the chance of cross-contamination. After mixing cells with Matrigel, 10 mL droplets were placed in wells and put in a 37° C. incubator with 5% CO2 for 30 minutes. Upon solidification of the Matrigel droplet with cells inside, the plate was placed inside a sterile hood and immersed the Matrigel droplet in 200 μL of organoid growth media. Cells were allowed to grow into mature organoids for 14 days. […] All treatments were done in triplicate, including vehicle-only controls (Dimethyl sulfoxide in culture medium at the highest concentration used for drug treatments).
To assess the cell viability in organoids after treatments, CellTiter-Glo® Luminescent Assay (Promega #G7572) was used. In brief, on day 14 of organoid culture, the matrigel droplet in each well with organoid inside was immersed in 100 μL of fresh growth media and 100 μL of CellTiter-Glo® reagent following the manufacturer's guideline. Blank wells containing only media and CellTiter Glo® reagent (no cells) were also included in each plate. Then the plates were put on a shaker @ 110 rpm at room temperature for 5 minutes to induce cell lysis, followed by 25 minutes at room temperature to stabilize the luminescent signal. Each step after adding the CellTiter Glo® reagent was performed in the dark. Luminescence was measured on a FLUOstar OPTIMA plate reader (BMG Lab technologies, Offenburg, Germany). Analysis was performed by normalizing treatment values to the vehicle control and plotting them as a percentage of the vehicle control. Drug IC50 values were determined by inhibitor vs normalized response-variable slope using least squares regression in Graphpad Prism 9.

C=C(C)[C@@H]1CCC(C)=C[C@H]1c1c(O)cc(CCCCC)cc1O [CBD, cannabidiol]
response of the patient's organoid ([1]; organoid of the chemoresistant endometrial cancer patient): significant response
peak plasma concentrations of CBD ([2]; coadministration of rifampicin (a CYP3A4 inducer)): significantly reduced
peak plasma drug concentrations ([2]; coadministration of the CYP3A4 inhibitor ketoconazole): nearly doubled
time of maximum plasma concentration ([2]; oral-mucosal or sublingual delivery): 1.6 h
time of maximum plasma concentration, delayed ([2]; orally delivered, some individuals): up to 6 hours
time of maximum plasma concentration ([2]; orally delivered): 2.5 to 5 h
inhibition of P-glycoprotein-mediated drug transport [3]: significantly inhibits
doses established as well tolerated [4]: up to 1,500 mg/day

C=C(C)[C@@H]1CCC(C)=C[C@H]1c1c(O)cc(CCCCC)cc1O [CBD isolate, cannabidiol]
viability at 15 µg/mL ([5]; 15 μg/mL): 0%
viability at 20 µg/mL ([5]; 20 μg/mL): 0%
IC50 ([6]; Homo sapiens, extract alone): 3 µg/mL (≈ 9.54 µM)
viability ([6]; carboplatin 50 μm/mL with IC50 amount of extract): ~37%
improvement in viability on adding the extract ([6]; carboplatin 100 μm/mL plus IC50 amount of extract): 32%
killing of the organoids compared with native pH [7]: virtually no change

CCCCCOC(=O)Nc1nc(=O)n([C@@H]2O[C@H](C)[C@@H](O)[C@H]2O)cc1F [Capecitabine (5-FU), Capecitabine]
Calculated IC50 PD3D Cell Culture [8]: Not Reached
Cmax [9]: 2220 nM

CC(=O)O[C@H]1C(=O)[C@@]2(C)[C@H]([C@H](OC(=O)c3ccccc3)[C@]3(O)C[C@H](OC(=O)[C@H](O)[C@@H](NC(=O)c4ccccc4)c4ccccc4)C(C)=C1C3(C)C)[C@]1(OC(C)=O)CO[C@@H]1C[C@@H]2O [Paclitaxel]
viability ([10]; 4 nm/mL): about 89%
viability ([10]; 20 nm/mL): about 57%
change in viability on increasing the dose by 5× ([10]; paclitaxel alone 4 to 20 nm/mL): 32%
overall kill rate ([10]; paclitaxel alone, highest dose (20 nm/mL)): less than 50%
effect on tumor volume / tumor growth [11]: ineffective in reducing tumor growth
effect on tumor volume / tumor growth ([11]; listed as paclitaxel): in essence ineffective
% Cell Death ([1]; organoid cell death): 39%
viability ([12]; paclitaxel alone 4 nm/mL): 45%
change in viability on adding 5× more paclitaxel ([12]; paclitaxel alone 4 to 20 nm/mL): about 3%
viability ([12]; paclitaxel alone, 5× more (20 nm/mL)): 42%
